This is an account of results in PubChem BioAssay (NCI).

“And” between values parts separate entries of the source, which are not always exact repeats. Identical values can stand only once.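 These data come from cells grown in 96-well plates and exposed to compound for 48 hours at five concentrations. At the GI50, growth is halved. The concentration for full growth arrest is given as TGI.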

In the first assay the test system is SNB-75 CNS. Briefly: NCI-60 cell line screen, 48 h.
Molecule `CCOC(=O)[C@]1(OC(C)=O)C[C@H](OC(C)=O)[C@@H](C(F)COP(=O)(OCc2ccccc2)OCc2ccccc2)O1` (some centres not stated) came in with a TGI above 100 µM.

In the case of `CC[C@@]1(O)C[C@H](OC2CC(N(C)C)C(O)C(C)O2)c2c(O)c3c(c(O)c2[C@H]1OC1CC(N(C)C)C(O)C(C)O1)C(=O)c1cccc(O)c1C3=O` (some centres not stated), the GI50 is below 0.01 µM.

As for `CC1(C)CCc2c(c3c(c4c(=O)c(O)c(-c5ccc(O)cc5)oc24)OC(C)(C)CC3)O1`, the GI50 was 19.5 µM and the TGI was 41.9 µM.

For `CCCCCN(CCCCC)CC(O)c1cc(C)c2ccc3cc(C(C)C)ccc3c2c1` (configuration not stated), the GI50 is 1.31 µM and the TGI turned out to be 2.65 µM.

In turn, `COC(=O)CC1CCN(C#N)CC1CC[N+](=O)[O-]` (configuration not stated) yielded a TGI above 100 µM.

On to `CC(C)CCC[C@@H](C)[C@H]1CC[C@H]2[C@@H]3CC=C4C[C@@H](C(C(=O)O)C(=O)O)CC[C@]4(C)[C@H]3CC[C@]12C`, for which the GI50 is 0.166 µM and the TGI worked out at 1.47 µM.

On to `CC1=C(C(=O)Nc2ccc(Cl)c(Cl)c2)C(c2cccc(Oc3ccccc3)c2)NC(=S)N1` (configuration not stated), for which the GI50 was 8.26 µM and the TGI is 18.4 µM.

As to `Nc1ccccc1SC(C[N+](=O)[O-])c1ccc2c(c1)OCO2` (configuration not stated), the TGI stood at 7.09 µM.

On to `CCCCCCCCCCCCCCCCCC(CCCCCCCCCCCCCCCCC)OP(=O)(O)O`, for which the TGI is above 100 µM.

On to `N#CCCN(CCC#N)c1ccc(/C=C2\N=C(c3cc([N+](=O)[O-])ccc3Cl)OC2=O)cc1`, for which the TGI was above 100 µM.

As to `O=C1C2C(C(=O)N1OS(=O)(=O)c1ccccc1)N(Cc1ccccc1)C(=O)N2Cc1ccccc1` (configuration not stated), the TGI was above 100 µM.

Regarding `O=C(COc1ccc(Br)cc1Br)N1N=C(c2ccc([N+](=O)[O-])o2)CC1(O)c1ccccc1` (configuration not stated), the TGI was 45 µM.

On to `O=C(Nc1ccccc1OC(F)(F)F)Nc1n[nH]c2ccccc12`, for which the GI50 was 17.5 µM and the TGI amounted to 49.8 µM.

As to `N#CC(c1ccc(Cl)cc1)c1cccc(C(C#N)c2ccc(Cl)cc2)n1` (configuration not stated), the TGI is 79.4 µM.

On to `Cc1nc2ccccc2c(=O)n1-c1ccccc1I`, for which the TGI was above 100 µM.

Take `O=C1/C(=C/c2ccccc2)CN(C(=O)C(Cl)(Cl)Cl)C/C1=C\c1ccccc1`: the TGI was 12.3 µM.

Take `CN(C)C(=N)c1ccccc1`: the TGI was above 100 µM.

For the molecule `Cc1cc(I)cc(CN(C)CCCCN2CCCCC2)c1O`, the GI50 was 15 µM and the TGI worked out at 32.8 µM.

In the next assay the test system is IGROV1 ovarian. Put plainly: NCI-60 cell line screen, 48 h.
On to `CCOC(=O)[C@]1(OC(C)=O)C[C@H](OC(C)=O)[C@@H](C(F)COP(=O)(OCc2ccccc2)OCc2ccccc2)O1` (some centres not stated), for which the GI50 was 19.6 µM and > 100 µM; the TGI is 39.8 µM and > 100 µM.

Consider `CC[C@@]1(O)C[C@H](OC2CC(N(C)C)C(O)C(C)O2)c2c(O)c3c(c(O)c2[C@H]1OC1CC(N(C)C)C(O)C(C)O1)C(=O)c1cccc(O)c1C3=O` (some centres not stated), for which the GI50 was below 0.01 µM and the TGI came out at 2.94 µM.

As for `CC1(C)CCc2c(c3c(c4c(=O)c(O)c(-c5ccc(O)cc5)oc24)OC(C)(C)CC3)O1`, the GI50 is above 100 µM and the TGI is above 100 µM.

With `CCCCCN(CCCCC)CC(O)c1cc(C)c2ccc3cc(C(C)C)ccc3c2c1` (configuration not stated), the GI50 is 1.79 µM and the TGI was 3.47 µM.

As for `COC(=O)CC1CCN(C#N)CC1CC[N+](=O)[O-]` (configuration not stated), the TGI is above 100 µM.

For the molecule `CC(C)CCC[C@@H](C)[C@H]1CC[C@H]2[C@@H]3CC=C4C[C@@H](C(C(=O)O)C(=O)O)CC[C@]4(C)[C@H]3CC[C@]12C`, the GI50 was 0.166 µM and the TGI was found to be 1.12 µM.

On to `COc1ccc(-c2nc3sccn3c2/C(N)=N/C(=N)N)cc1OC`, for which the GI50 was 3.26 µM and the TGI was found to be 7.11 µM.

With `CC1=C(C(=O)Nc2ccc(Cl)c(Cl)c2)C(c2cccc(Oc3ccccc3)c2)NC(=S)N1` (configuration not stated), the GI50 was 7.72 µM and the TGI worked out at 19 µM.

For `Nc1ccccc1SC(C[N+](=O)[O-])c1ccc2c(c1)OCO2` (configuration not stated), the TGI came to 3.2 µM.

`CCCCCCCCCCCCCCCCCC(CCCCCCCCCCCCCCCCC)OP(=O)(O)O` yielded a TGI above 100 µM.

As to `Cc1ccc(NC2=C(Cl)C(=O)N(Cc3ccccc3)C2=O)cc1O`, the GI50 is 35.4 µM and the TGI is above 100 µM.

Turning to `N#CCCN(CCC#N)c1ccc(/C=C2\N=C(c3cc([N+](=O)[O-])ccc3Cl)OC2=O)cc1`, the TGI is above 100 µM.

`O=C1C2C(C(=O)N1OS(=O)(=O)c1ccccc1)N(Cc1ccccc1)C(=O)N2Cc1ccccc1` (configuration not stated) came in with a TGI above 100 µM.

For the molecule `O=C(COc1ccc(Br)cc1Br)N1N=C(c2ccc([N+](=O)[O-])o2)CC1(O)c1ccccc1` (configuration not stated), the TGI worked out at 75.9 µM.

On to `O=C(Nc1ccccc1OC(F)(F)F)Nc1n[nH]c2ccccc12`, for which the GI50 was 4.59 µM and the TGI was 83.6 µM.

The molecule `Cc1nc2ccccc2c(=O)n1-c1ccccc1I` came in with a TGI above 100 µM.

The molecule `O=C1/C(=C/c2ccccc2)CN(C(=O)C(Cl)(Cl)Cl)C/C1=C\c1ccccc1` returned a TGI of 5.32 µM.

Turning to `Cc1cc(I)cc(CN(C)CCCCN2CCCCC2)c1O`, the GI50 was 17.7 µM and the TGI turned out to be 41 µM.

Molecule `CN/N=C(/Cc1occc(=O)c1O)C(=O)Nc1ccccc1C` had a TGI above 100 µM.

The test system of another assay is OVCAR-5 ovarian. Put plainly: NCI-60 cell line screen, 48 h.
On to `CCOC(=O)[C@]1(OC(C)=O)C[C@H](OC(C)=O)[C@@H](C(F)COP(=O)(OCc2ccccc2)OCc2ccccc2)O1` (some centres not stated), for which the GI50 is 32.7 µM and > 100 µM; the TGI is 95 µM and > 100 µM.

As for `CC[C@@]1(O)C[C@H](OC2CC(N(C)C)C(O)C(C)O2)c2c(O)c3c(c(O)c2[C@H]1OC1CC(N(C)C)C(O)C(C)O1)C(=O)c1cccc(O)c1C3=O` (some centres not stated), the GI50 is below 0.01 µM.

Turning to `CC1(C)CCc2c(c3c(c4c(=O)c(O)c(-c5ccc(O)cc5)oc24)OC(C)(C)CC3)O1`, the GI50 was above 100 µM and the TGI was above 100 µM.

In the case of `CCCCCN(CCCCC)CC(O)c1cc(C)c2ccc3cc(C(C)C)ccc3c2c1` (configuration not stated), the GI50 was 1.8 µM and the TGI worked out at 3.66 µM.

As for `CC(C)CCC[C@@H](C)[C@H]1CC[C@H]2[C@@H]3CC=C4C[C@@H](C(C(=O)O)C(=O)O)CC[C@]4(C)[C@H]3CC[C@]12C`, the GI50 is 0.198 µM and the TGI came out at 5.56 µM.

`COc1ccc(-c2nc3sccn3c2/C(N)=N/C(=N)N)cc1OC`: the GI50 is 78 µM and the TGI was above 100 µM.

In the case of `CC1=C(C(=O)Nc2ccc(Cl)c(Cl)c2)C(c2cccc(Oc3ccccc3)c2)NC(=S)N1` (configuration not stated), the GI50 is 9.38 µM and the TGI came out at 18.7 µM.

For `Nc1ccccc1SC(C[N+](=O)[O-])c1ccc2c(c1)OCO2` (configuration not stated), the TGI was found to be 9.85 µM.
